Measured values: patent US8906852B2 (MethylGene Inc., priority 2010, dated 2014)

How the values were obtained:
VEGFR/KDR = target: T1, VEGFR/KDR (Homo sapiens, UniProt P35968); assay: VEGFR/KDR kinase inhibition, DELFIA assay; format: biochemical; details: ATP 0.6 uM (2x Km), enzyme 5 nM
T1 construct: made in house; host or cells: Sf9 cells (Spodoptera frugiperda), baculovirus
Summary of the method: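 DELFIA time-resolved fluorescence readout using Europium-tagged anti-phosphotyrosine antibody after EDTA stop. Kinase reaction on plate-bound poly(Glu4,Tyr) ran 10-30 min at 30° C with 5 nM enzyme and 0.6 uM ATP (2× Km), following 4 min on-ice pre-incubation with compound; IC50 over a concentration range.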

CNV progression = assay: In vivo choroidal neovascularization (CNV) model, laser-induced, intravitreal injection; parameters: species or system Male Brown-Norway rats; details: rat; for inhibition in vivo at 10 nmol/eye / inhibition in vivo at 3 nmol/eye: 240 h; for inhibition in vivo at 10 nmol/eye / Inhibition of CNV progression: 10 nmol/eye injected on Day 3, CNV area on Day 10, vs vehicle; for inhibition in vivo at 3 nmol/eye: 3 nmol/eye injected on Day 3, CNV area on Day 10, vs vehicle
Excerpt: This test measures the capacity of compounds to inhibit CNV progression. CNV is the main cause of severe vision loss in patients suffering from age-related macular degeneration (AMD).
Male Brown-Norway rats (Japan Clea Co., Ltd.) were used in these studies.
Rats were anesthetized by intraperitoneal injection of pentobarbital, and the right pupil was dilated with 0.5% tropicamide and 0.5% phenylephrine hydrochloride. The right eye received 6 laser burns between retinal vessels using a slit lamp delivery system of Green laser Photocoagulator (Nidex Inc., Japan), and microscope slide glass with Healon™ (AMO Inc) used as a contact lens. The laser power was 100 or 200 mW for 0.1 second and spot diameter was 100 μm. At the time of laser burn, bubble production was observed, which is an indication of rupture of Bruch's membrane which is important for CNV generation.
Rats were divided into the groups based on their body weight using SAS software (SAS institute Japan, R8.1) after laser irradiation (Day 0). After animals were anesthetized, and the right pupil dilated (as above mentioned), the right eye of the animal received the compound or vehicle by an injection (10 μL/eye) at doses of 10 or 3 nmol/eye on Day 3. The compounds were dissolved or suspended in CBS, PBS, or other adequate vehicles before injection.
On Day 10, the animals were anesthetized with ether, and high molecular weight fluorescein isothiocyanate (FITC)-dextran (SIGMA, 2×10^6 MW) was injected via a tail vein (20 mg/rat). About 30 min after FITC-dextran injection, animals were euthanized by ether or carbon dioxide, and the eyes were removed and fixed with 10% formaline neutral buffer solution. After over 1 hour of fixation, RPE-choroid-sclera flat mounts were obtained by removing cornea, lens and retina from the eyeballs. The flat mounts were mounted in 50% glycerol on a microscope slide, and the portion burned by laser was photographed using a fluorescence microscope (Nikon Corporation, excitation filter:465-495 nm, absorption filter:515-555 nm). The CNV area was obtained by measurement of hyper-fluorescence area observed on the photograph using Scion image.
The average CNV area of 6 burns was used as an individual value of CNV area, and the average CNV area of compound treated group was compared with that of the vehicle-treated group.

T1 sequence (P35968 806-1356): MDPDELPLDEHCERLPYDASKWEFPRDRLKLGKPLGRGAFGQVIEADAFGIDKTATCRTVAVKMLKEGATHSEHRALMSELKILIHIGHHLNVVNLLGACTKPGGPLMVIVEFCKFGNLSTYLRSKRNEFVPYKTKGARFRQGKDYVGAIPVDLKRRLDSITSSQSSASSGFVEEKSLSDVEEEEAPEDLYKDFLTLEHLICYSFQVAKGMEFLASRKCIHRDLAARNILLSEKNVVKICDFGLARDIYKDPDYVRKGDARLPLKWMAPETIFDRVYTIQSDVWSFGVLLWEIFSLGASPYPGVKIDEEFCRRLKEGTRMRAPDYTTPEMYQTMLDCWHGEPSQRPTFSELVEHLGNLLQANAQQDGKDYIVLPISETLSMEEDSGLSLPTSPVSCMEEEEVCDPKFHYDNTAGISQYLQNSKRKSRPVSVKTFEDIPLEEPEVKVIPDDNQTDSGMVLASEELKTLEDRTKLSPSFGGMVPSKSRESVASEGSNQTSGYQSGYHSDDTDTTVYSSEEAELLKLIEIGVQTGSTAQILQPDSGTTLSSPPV

Compound	IC50 (VEGFR/KDR) [nM]	inhibition in vivo at 10 nmol/eye (CNV progression) [%]	inhibition in vivo at 3 nmol/eye (CNV progression) [%]	Inhibition of CNV progression (CNV progression)
CC(C)N(CCN1CCN(C(=O)c2ccc(-c3cc4nccc(Oc5ccc(NC(=O)NC6CC6)cc5F)c4s3)nc2)CC1)C(C)C [Compound 230, 1-cyclopropyl-3-(4-(2-(5-(4-(2-(diisopropylamino)ethyl)piperazine-1-carbonyl)pyridin-2-yl)thieno[3,2-b]pyridin-7-yloxy)-3-fluorophenyl)urea]	< 50		40 to 60	
O=C(Nc1ccc(Oc2ccnc3cc(-c4ccc(CN5CCN(CCO)CC5)cn4)sc23)c(F)c1)NC1CC1 [Compound 55, 1-cyclopropyl-3-(3-fluoro-4-(2-(5-((4-(2-hydroxyethyl)piperazin-l-yl)methyl)pyridin-2-yl)thieno[3,2-b]-pyridin-7-yloxy)phenyl)urea]	< 50	40 to 60		
O=C(Nc1ccc(Oc2ccnc3cc(-c4ccc(CN5CCCS5(=O)=O)cn4)sc23)c(F)c1)NC1CC1 [Compound 142, 1-cyclopropyl-3-(3-fluoro-4-(2-(5-(2,2-dioxo-2-thiapyrrolidin-1-ylmethyl)pyridin-2-yl)thieno[3,2-b]pyridin-7-yloxy)phenyl)urea]	< 50	40 to 60		
(S)-1-(4-(2-(5-((3-amino-2-oxopyrrolidin-1-yl)methyl)pyridin-2-yl)thieno[3,2-b]pyridin-7-yloxy)-3-fluorophenyl)-3-cyclopropylurea [Compound 108]				A (greater than or equal to 60% inhibition)
O=C(Nc1ccc(Oc2ccnc3cc(-c4ccc(CN5CCNCC5)cn4)sc23)c(F)c1)NC1CC1 [Compound 49, 1-cyclopropyl-3-(3-fluoro-4-(2-(5-(piperazin-1-ylmethyl)pyridin-2-yl)thieno[3,2-b]-pyridin-7-yloxy)phenyl)urea]	< 50	≥ 60		
N-((6-(7-(4-(3-cyclopropylureido)-2-fluorophenoxy)thieno[3,2-b]pyridin-2-yl)pyridin-3-yl)methyl)-N-(2-methoxyethyl)formimidamide [Compound 7]				B (≧40% to <60% inhibition)
CN1CCN(Cc2ccc(-c3cc4nccc(Oc5ccc(NC(=O)NC6CC6)cc5F)c4s3)nc2)CC1 [Compound 51, 1-cyclopropyl-3-(3-fluoro-4-(2-(5-((4-methylpiperazin-1-yl)methyl)pyridin-2-yl)thieno[3,2-b]-pyridin-7-yloxy)phenyl)urea]	< 50	≥ 60		
2-cyclopropyl-N-(3-fluoro-4-(2-(5-((N- (2-methoxyethyl)-acetamido)methyl)pyridin-2- yl)thieno[3,2-b]-pyridin-7-yloxy)phenyl)-acetamide [Compound 42]				A (greater than or equal to 60% inhibition)
CNC(=O)N(CCOC)Cc1ccc(-c2cc3nccc(Oc4ccc(NC(=O)NC5CC5)cc4F)c3s2)nc1 [Compound 3, N-[3-((6-(7-(4-(3-cyclopropylureido)-2-fluorophenoxy)thieno[3,2-b]pyridin-2-yl)pyridin-3-yl)methyl)]-N-(1-methyl)-N-[3-(2-methoxyethyl)]urea]	< 50			A (greater than or equal to 60% inhibition)
CN1CCC(CN2CCN(C(=O)c3ccc(-c4cc5nccc(Oc6ccc(NC(=O)NC7CC7)cc6F)c5s4)nc3)CC2)CC1 [Compound 232, 1-cyclopropyl-3-(3-fluoro-4-(2-(5-(4-((1-methylpiperidin-4-yl)methyl)piperazine-1-carbonyl)pyridin-2-yl)thieno[3,2-b]pyridin-7-yloxyl)phenyl)urea]	< 50		40 to 60	
COCCNCc1ccc(-c2cc3nccc(Oc4ccc(NC(=O)NC5CC5)c(F)c4F)c3s2)nc1 [Compound 25, 1-cyclopropyl-3-(2,3-difluoro-4-(2-(5-((2-methoxyethylamino)methyl)pyridin-2-yl)thieno[3,2-b]pyridin-7-yloxy)phenyl)urea]	< 50	≥ 60		
CN1CCN(CCn2cc(-c3cc4nccc(Oc5ccc(NC(=O)NC6CC6)cc5F)c4s3)cn2)CC1 [Compound 154, 1-cyclopropyl-3-(3-fluoro-4-(2-(1-(2-(4-methylpiperazin-1-yl)ethyl)-1H-pyrazol-4-yl)thieno[3,2-b]pyridin-7-yloxy)phenyl)urea]	< 50		40 to 60	
CN(C)C/C=C/C(=O)N1CCN(Cc2ccc(-c3cc4nccc(Oc5ccc(NC(=O)NC6CC6)cc5F)c4s3)nc2)CC1 [Compound 547, (E)-1-cyclopropyl-3-(4-(2-(5-((4-(4-(dimethylamino)but-2-enoyl)piperazin-1-yl)methyl)pyridin-2-yl)thieno[3,2-b]pyridin-7-yloxy)-3-fluorophenyl)urea]	< 50			

Now from value to compound, other results behind:

IC50 (VEGFR/KDR) [nM]	Compound	inhibition in vivo at 10 nmol/eye (CNV progression) [%]	inhibition in vivo at 3 nmol/eye (CNV progression) [%]	Inhibition of CNV progression (CNV progression)
< 50	O=C(Nc1ccc(Oc2ccnc3cc(-c4ccc(CNCCO)cn4)sc23)c(F)c1)NC1CC1 [Compound 9, 1-cyclopropyl-3-(3-fluoro-4-(2-(5-((2-hydroxyethylamino)methyl)pyridin-2-yl)-thieno[3,2-b]pyridin-7-yloxy)phenyl)urea]	≥ 60		
< 50	COCCN(Cc1ccc(-c2cc3nccc(Oc4ccc(NC(=O)NC5CC5)cc4F)c3s2)nc1)C(=O)[C@H](C)O [Compound 89, (S)-N-((6-(7-(4-(3-cyclopropylureido)-2-fluorophenoxy)thieno[3,2-b]pyridin-2-yl)pyridin-3-yl)methyl)-2-hydroxy-N-(2-methoxyethyl)propanamide]	≥ 60		
< 50	CCNC(=O)N(CCOCCOCCOCCOC)Cc1ccc(-c2cc3nccc(Oc4ccc(NC(=O)NC5CC5)cc4F)c3s2)nc1 [Compound 36, N-[3-((6-(7-(4-(3-cyclopropylureido)-2-fluorophenoxy)-thieno[3,2-b]-pyridin-2-yl)pyridin-3-yl)methyl)]-N-(1-ethyl)-N-[3-(2,5,8,11-tetraoxatridecan-13-yl)]urea]	40 to 60		
< 50	COCCN(Cc1ccc(-c2cc3nccc(Oc4ccc(NC(=O)NC5CC5)cc4F)c3s2)nc1)C(=O)CS(C)(=O)=O [Compound 90, N-((6-(7-(4-(3-cyclopropylureido)-2-fluorophenoxy)thieno[3,2-b]pyridin-2-yl)pyridin-3-yl)methyl)-N-(2-methoxyethyl)-2-(methylsulfonyl)acetamide]	≥ 60		
< 50	COCCNCCc1ccc(-c2cc3nccc(Oc4ccc(NC(=O)NC5CC5)cc4F)c3s2)nc1 [Compound 288, 1-cyclopropyl-3-(3-fluoro-4-(2-(5-(2-(2-methoxyethylamino)ethyl)pyridin-2-yl)thieno[3,2-b]pyridin-7-yloxy)phenyl)urea]	40 to 60		
< 50	CN(C)C(=O)CCN1CCN(Cc2ccc(-c3cc4nccc(Oc5ccc(NC(=O)NC6CC6)cc5F)c4s3)nc2)CC1 [Compound 83, 3-(4-((6-(7-(4-(3-cyclopropylureido)-2-luorophenoxy)thieno-[3,2-b]pyridin-2-yl)pyridin-3-yl)melhyl)piperazin-l-yl)-N,N-dimethyl-propanamide]	40 to 60		
< 50	COCCN(C=N)Cc1ccc(-c2cc3nccc(Oc4ccc(NC(=O)NC5CC5)cc4F)c3s2)nc1 [Compound 7, N-((6-(7-(4-(3-cyclopropylureido)-2-fluorophenoxy)thieno[3,2-b]pyridin-2-yl)pyridin-3-yl)methyl)-N-(2-methoxyethyl)formimidamide]	≥ 60		
< 50	COCCN(Cc1ccc(-c2cc3nccc(Oc4ccc(NC(=O)NC5CC5)cc4F)c3s2)nc1)C(N)=O [Compound 5, N-[3-((6-(7-(4-(3-cyclopropylureido)-2-fluorophenoxy)thieno[3,2-b]pyridin-2-yl)pyridin-3-yl)methyl)]-N-[3-(2-methoxyethyl)]urea]	40 to 60		
< 50	COCCN(CCc1ccc(-c2cc3nccc(Oc4ccc(NC(=O)NC5CC5)cc4F)c3s2)nc1)C(C)=O [Compound 41, N-(2-(6-(7-(4-(3-cyclopropylureido)-2-fluorophcnoxy)-thieno[3,2-b]-pyridin-2-yl)pyridin-3-yl)ethyl)-N-(2-methoxyethyl)-acetamide]	40 to 60		
